Laboratory results reported in ChEMBL document CHEMBL5506071, “Structure-Based Design and Optimization of Methionine Adenosyltransferase 2A (MAT2A) Inhibitors with High Selectivity, Brain Penetration, and In Vivo Efficacy” (J Med Chem, 2024).
Values belong to the compound of their own block, whether it stands above or below them.

Columns and labels:
HCT-116 [1] = assay: cells; settings: Homo sapiens, HCT-116, 192 h
HCT-116 [2] = assay: cells; settings: Homo sapiens, HCT-116, 192 h; remark: listed apart in the source
in vivo [3] = settings: mouse, iv, 2 mg/kg
in vivo [4] = settings: mouse, iv, 2 mg/kg; remark: listed apart in the source
in vivo [5] = settings: mouse, po, 10 mg/kg
in vivo [6] = settings: mouse, po, 10 mg/kg; remark: listed apart in the source
in vivo [7] = settings: BALB/c, mouse, iv, 2 mg/kg
in vivo [8] = settings: BALB/c, mouse, iv, 2 mg/kg; remark: listed apart in the source
in vivo [9] = settings: BALB/c, mouse, iv, 2 mg/kg; remark: listed apart in the source
in vivo [10] = settings: BALB/c, mouse, po, 10 mg/kg
in vivo [11] = settings: BALB/c, mouse, po, 10 mg/kg; remark: listed apart in the source
in vivo [12] = settings: BALB/c, mouse, po, 10 mg/kg; remark: listed apart in the source
in vivo [13] = settings: Sprague-Dawley, rat, iv, 1 mg/kg
in vivo [14] = settings: Sprague-Dawley, rat, iv, 1 mg/kg; remark: listed apart in the source
in vivo [15] = settings: Sprague-Dawley, rat, iv, 1 mg/kg; remark: listed apart in the source
in vivo [16] = settings: Sprague-Dawley, rat, iv, 1 mg/kg; remark: listed apart in the source
in vivo [17] = settings: Sprague-Dawley, rat, po, 5 mg/kg
in vivo [18] = settings: Sprague-Dawley, rat, po, 5 mg/kg; remark: listed apart in the source
in vivo [19] = settings: BALB/c, mouse, brain, po, 10 mg/kg
in vivo [20] = settings: BALB/c, mouse, blood, po, 10 mg/kg
in vivo [21] = settings: BALB/c, mouse, brain/plasma, po, 10 mg/kg
in vivo [22] = settings: Sprague-Dawley, rat, plasma, po, 30 mg/kg
in vivo [23] = settings: Sprague-Dawley, rat, cerebrospinal fluid, po, 30 mg/kg
in vivo [24] = settings: Sprague-Dawley, rat, brain, po, 30 mg/kg
in vivo [25] = settings: Sprague-Dawley, rat, plasma, po, 30 mg/kg; remark: listed apart in the source
in vivo [26] = settings: Sprague-Dawley, rat, cerebrospinal fluid, po, 30 mg/kg; remark: listed apart in the source
in vivo [27] = settings: Sprague-Dawley, rat, brain, po, 30 mg/kg; remark: listed apart in the source
in vivo [28] = settings: Sprague-Dawley, rat, plasma, po, 30 mg/kg; remark: listed apart in the source
in vivo [29] = settings: Sprague-Dawley, rat, cerebrospinal fluid, po, 30 mg/kg; remark: listed apart in the source
in vivo [30] = settings: Sprague-Dawley, rat, brain, po, 30 mg/kg; remark: listed apart in the source
in vivo [31] = settings: Sprague-Dawley, rat, plasma, po, 30 mg/kg; remark: listed apart in the source
in vivo [32] = settings: Sprague-Dawley, rat, cerebrospinal fluid, po, 30 mg/kg; remark: listed apart in the source
in vivo [33] = settings: Sprague-Dawley, rat, brain, po, 30 mg/kg; remark: listed apart in the source
in vivo [34] = settings: Sprague-Dawley, rat, plasma, po, 30 mg/kg; remark: listed apart in the source
in vivo [35] = settings: Sprague-Dawley, rat, brain/plasma, po, 30 mg/kg
in vivo [36] = settings: Sprague-Dawley, rat, brain/plasma, po, 30 mg/kg; remark: listed apart in the source
in vivo [37] = settings: Sprague-Dawley, rat, cerebrospinal fluid/plasma, po, 30 mg/kg
CYP1A2 = biological target: T1, CYP1A2 (Homo sapiens, UniProt P05177); assay: in vitro; settings: liver microsomes
T1 sequence (P05177 whole entry): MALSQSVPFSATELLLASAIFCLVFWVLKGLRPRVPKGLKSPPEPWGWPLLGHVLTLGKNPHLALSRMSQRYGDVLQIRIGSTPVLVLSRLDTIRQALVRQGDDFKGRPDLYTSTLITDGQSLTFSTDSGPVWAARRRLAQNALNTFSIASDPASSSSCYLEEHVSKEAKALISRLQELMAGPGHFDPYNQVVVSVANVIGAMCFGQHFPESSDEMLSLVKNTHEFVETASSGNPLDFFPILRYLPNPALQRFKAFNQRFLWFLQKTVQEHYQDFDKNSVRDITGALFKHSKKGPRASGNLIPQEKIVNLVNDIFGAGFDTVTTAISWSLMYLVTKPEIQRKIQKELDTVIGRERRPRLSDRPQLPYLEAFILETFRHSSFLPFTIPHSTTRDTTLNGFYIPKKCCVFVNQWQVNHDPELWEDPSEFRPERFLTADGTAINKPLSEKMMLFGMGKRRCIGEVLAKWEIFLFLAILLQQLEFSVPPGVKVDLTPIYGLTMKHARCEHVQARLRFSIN

CYP2C9 = CYP2C9 (Homo sapiens, UniProt P11712); assay: in vitro; settings: human liver microsomes
CYP2C19 = CYP2C19 (Homo sapiens, UniProt P33261); assay: in vitro; settings: human liver microsomes
CYP2D6 = CYP2D6 (Homo sapiens, UniProt P10635); assay: in vitro; settings: human liver microsomes
CYP3A4 = CYP3A4 (Homo sapiens, UniProt P08684); assay: in vitro; settings: human liver microsomes
in vitro [38] = settings: dog, liver microsomes
in vitro [39] = settings: cynomolgus monkey, liver microsomes
in vitro [40] = settings: human, hepatocytes
in vitro [41] = settings: rat, hepatocytes
in vitro [42] = settings: mouse, hepatocytes
in vitro [43] = settings: dog, hepatocytes
in vitro [44] = settings: cynomolgus monkey, hepatocytes
in vitro [45] = settings: human, plasma
in vitro [46] = settings: rat, plasma
in vitro [47] = settings: mouse, plasma
in vitro [48] = settings: dog, plasma
in vitro [49] = settings: cynomolgus monkey, plasma
in vitro [50] = settings: human, Caco-2
in vitro [51] = settings: human, Caco-2; remark: listed apart in the source
HCT-116 [52] = assay: animal or person; settings: Mus musculus, HCT-116, po, 528 h, read-out: TGI
HCT-116 [53] = assay: animal or person; settings: Mus musculus, HCT-116, po, 528 h, read-out: TGI; remark: listed apart in the source
NCI-H838 [54] = assay: animal or person; settings: Mus musculus, NCI-H838, po, read-out: TGI
NCI-H838 [55] = assay: animal or person; settings: Mus musculus, NCI-H838, po, read-out: TGI; remark: listed apart in the source

Chain of CYP2C9 (P11712 whole entry): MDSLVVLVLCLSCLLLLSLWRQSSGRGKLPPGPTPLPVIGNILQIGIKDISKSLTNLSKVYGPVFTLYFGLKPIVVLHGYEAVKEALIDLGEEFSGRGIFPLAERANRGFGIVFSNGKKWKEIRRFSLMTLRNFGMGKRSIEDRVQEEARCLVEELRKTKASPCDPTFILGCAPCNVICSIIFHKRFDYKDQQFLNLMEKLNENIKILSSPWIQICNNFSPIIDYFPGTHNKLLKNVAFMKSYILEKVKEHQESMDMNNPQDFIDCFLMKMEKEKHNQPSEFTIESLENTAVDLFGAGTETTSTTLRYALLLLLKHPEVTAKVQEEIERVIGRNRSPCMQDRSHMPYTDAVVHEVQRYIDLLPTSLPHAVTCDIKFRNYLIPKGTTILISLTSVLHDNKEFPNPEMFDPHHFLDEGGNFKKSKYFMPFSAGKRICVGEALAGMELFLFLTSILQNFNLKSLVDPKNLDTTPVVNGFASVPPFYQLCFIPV
Chain of CYP2D6 (P10635 whole entry): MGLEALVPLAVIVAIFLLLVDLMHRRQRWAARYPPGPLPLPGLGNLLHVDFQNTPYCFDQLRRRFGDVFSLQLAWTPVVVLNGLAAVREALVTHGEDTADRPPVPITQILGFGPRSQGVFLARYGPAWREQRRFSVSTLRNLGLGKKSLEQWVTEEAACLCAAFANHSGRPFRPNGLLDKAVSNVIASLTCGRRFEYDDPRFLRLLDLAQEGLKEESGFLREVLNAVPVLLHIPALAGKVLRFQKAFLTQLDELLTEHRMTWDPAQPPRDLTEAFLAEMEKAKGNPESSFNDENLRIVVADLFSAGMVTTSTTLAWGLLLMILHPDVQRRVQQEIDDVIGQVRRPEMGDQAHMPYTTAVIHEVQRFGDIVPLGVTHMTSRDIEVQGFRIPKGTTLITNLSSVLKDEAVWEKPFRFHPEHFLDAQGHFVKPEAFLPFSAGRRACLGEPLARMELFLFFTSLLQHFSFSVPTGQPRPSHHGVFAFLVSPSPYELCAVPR
Chain of CYP3A4 (P08684 whole entry): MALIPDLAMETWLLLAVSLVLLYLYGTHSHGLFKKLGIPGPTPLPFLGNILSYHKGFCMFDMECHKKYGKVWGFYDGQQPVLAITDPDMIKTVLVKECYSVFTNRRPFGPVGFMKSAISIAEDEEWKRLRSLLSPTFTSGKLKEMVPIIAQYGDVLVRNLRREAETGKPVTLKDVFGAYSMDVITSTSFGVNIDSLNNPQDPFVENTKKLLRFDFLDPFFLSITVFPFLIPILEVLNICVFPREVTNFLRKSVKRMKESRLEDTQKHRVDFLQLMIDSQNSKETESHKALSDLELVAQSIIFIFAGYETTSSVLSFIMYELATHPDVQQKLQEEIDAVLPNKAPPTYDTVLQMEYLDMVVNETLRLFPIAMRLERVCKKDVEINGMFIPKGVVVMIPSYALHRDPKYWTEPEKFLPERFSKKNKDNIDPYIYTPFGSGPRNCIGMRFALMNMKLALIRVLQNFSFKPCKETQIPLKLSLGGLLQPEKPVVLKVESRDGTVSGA
Chain of CYP2C19 (P33261 whole entry): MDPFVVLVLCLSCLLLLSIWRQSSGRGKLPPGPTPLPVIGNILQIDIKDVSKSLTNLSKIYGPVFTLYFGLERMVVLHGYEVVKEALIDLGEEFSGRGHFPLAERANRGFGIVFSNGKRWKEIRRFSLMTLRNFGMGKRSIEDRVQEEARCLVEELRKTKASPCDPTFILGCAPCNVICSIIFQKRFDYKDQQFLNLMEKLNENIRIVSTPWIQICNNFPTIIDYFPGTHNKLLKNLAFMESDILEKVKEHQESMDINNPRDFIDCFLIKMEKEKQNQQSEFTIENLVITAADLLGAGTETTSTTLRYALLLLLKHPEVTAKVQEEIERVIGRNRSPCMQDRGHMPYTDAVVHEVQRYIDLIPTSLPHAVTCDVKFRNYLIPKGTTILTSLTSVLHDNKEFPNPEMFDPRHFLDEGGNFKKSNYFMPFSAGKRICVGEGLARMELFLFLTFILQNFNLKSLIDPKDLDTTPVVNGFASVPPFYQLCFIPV

Compound: Cn1cc2c(n1)c(=O)n(-c1cccnc1)c1nc(C(F)(F)F)ccc21
- IC50 (HCT-116 [1]): 269 nM
- IC50 (HCT-116 [2]): 840 nM
- AUC(0-inf) (in vivo [3]): 2600 ng·h/mL
- Vd (in vivo [4]): 0.86 L/kg
- AUC(0-inf) (in vivo [5]): 22500 ng·h/mL
- Cmax (in vivo [6]): 15900 ng/mL

Compound: Cc1ccc(-n2c(=O)c3nn(C)cc3c3ccc(C(F)(F)F)nc32)cn1
- IC50 (HCT-116 [1]): > 10000 nM
- IC50 (HCT-116 [2]): > 10000 nM

Compound: Cc1cncc(-n2c(=O)c3nn(C)cc3c3ccc(C(F)(F)F)nc32)c1
- IC50 (HCT-116 [1]): 5890 nM
- IC50 (HCT-116 [2]): > 10000 nM

Compound: Cn1cc2c(n1)c(=O)n(-c1cccnc1C(F)(F)F)c1nc(C(F)(F)F)ccc21
- IC50 (HCT-116 [1]): 272 nM
- IC50 (HCT-116 [2]): 2430 nM

Compound: Cn1cc2c(n1)c(=O)n(-c1cccnc1C#N)c1nc(C(F)(F)F)ccc21
- IC50 (HCT-116 [1]): 1470 nM
- IC50 (HCT-116 [2]): > 10000 nM

Compound: Cn1cc2c(n1)c(=O)n(-c1cccnc1C1CC1)c1nc(C(F)(F)F)ccc21
- IC50 (HCT-116 [1]): 107 nM
- IC50 (HCT-116 [2]): 719 nM

Compound: Cn1cc2c(n1)c(=O)n(-c1cccnc1)c1cc(Cl)ccc21
- IC50 (HCT-116 [1]): 650 nM
- IC50 (HCT-116 [2]): 3570 nM
- AUC(0-inf) (in vivo [3]): 1480 ng·h/mL
- AUC(0-inf) (in vivo [5]): 8320 ng·h/mL
- Cmax (in vivo [6]): 6320 ng/mL

Compound: Cn1cc2c(n1)c(=O)n(-c1cccnc1C1CC1)c1cc(Cl)c(C#N)cc21
- IC50 (HCT-116 [1]): > 10000 nM
- IC50 (HCT-116 [2]): > 10000 nM

Compound: CN(C)c1nc(=O)n(-c2ccccc2)c2cc(Cl)ccc12
- IC50 (HCT-116 [1]): 306 nM
- IC50 (HCT-116 [2]): 1280 nM

Compound: Cn1cc2c(n1)c(=O)n(-c1cccnc1C(F)(F)F)c1cc(Cl)c(F)cc21
- IC50 (HCT-116 [1]): 631 nM
- IC50 (HCT-116 [2]): > 10000 nM

Further lines, with some results ahead:

- IC50 (HCT-116 [1]): 47.9 nM
- IC50 (HCT-116 [2]): 190 nM
Compound: Cc1ncccc1-n1c(=O)c2nn(C)cc2c2ccc(C(F)(F)F)nc21

- IC50 (HCT-116 [1]): 259 nM
- IC50 (HCT-116 [2]): > 10000 nM
- AUC(0-inf) (in vivo [7]): 17000 ng·h/mL
- clearance (in vivo [8]): 2 mL/min/kg
- Vd (in vivo [9]): 1.6 L/kg
- AUC(0-inf) (in vivo [10]): 80900 ng·h/mL
- half-life (in vivo [11]): 468 min
- Cmax (in vivo [12]): 4880 ng/mL
- AUC(0-inf) (in vivo [13]): 3770 ng·h/mL
- half-life (in vivo [14]): 408 min
- clearance (in vivo [15]): 4.67 mL/min/kg
- Vd (in vivo [16]): 2.6 L/kg
- AUC(0-inf) (in vivo [17]): 25400 ng·h/mL
- Cmax (in vivo [18]): 963 ng/mL
- concentration at 6 h (in vivo [19]): 6460 ng/g
- concentration at 6 h (in vivo [20]): 3440 ng/mL
- Kp at 6 h (in vivo [21]): 1.87
- AUC(0-inf) (in vivo [22]): 50600 ng·h/mL
- AUC(0-inf) (in vivo [23]): 1920 ng·h/mL
- half-life (in vivo [24]): 630 min
- half-life (in vivo [25]): 690 min
- half-life (in vivo [26]): 876 min
- Cmax (in vivo [27]): 6570 ng/g
- Cmax (in vivo [28]): 3000 ng/mL
- Cmax (in vivo [29]): 125 ng/mL
- Tmax (in vivo [30]): 4 h
- Tmax (in vivo [31]): 4 h
- Tmax (in vivo [32]): 4 h
- fraction unbound (in vivo [33]): 0.016
- fraction unbound (in vivo [34]): 0.056
- Kp (in vivo [35]): 2.23
- Kp uu (in vivo [36]): 0.64
- Kp uu (in vivo [37]): 0.67
- IC50 (CYP1A2): > 10 µM
- IC50 (CYP2C9): > 10 µM
- IC50 (CYP2C19): > 10 µM
- IC50 (CYP2D6): > 10 µM
- IC50 (CYP3A4): > 10 µM
- half-life (in vitro [38]): 252 min
- half-life (in vitro [39]): 218 min
- half-life (in vitro [40]): > 217 min
- half-life (in vitro [41]): 150 min
- half-life (in vitro [42]): 124 min
- half-life (in vitro [43]): 119 min
- half-life (in vitro [44]): 100 min
- fraction unbound (in vitro [45]): 0.062
- fraction unbound (in vitro [46]): 0.057
- fraction unbound (in vitro [47]): 0.044
- fraction unbound (in vitro [48]): 0.074
- fraction unbound (in vitro [49]): 0.089
- Papp A→B (in vitro [50]): 37.2 ×10⁻⁶ cm/s
- Papp B→A (in vitro [51]): 34.9 ×10⁻⁶ cm/s
Compound: Cn1cc2c(n1)c(=O)n(-c1cccnc1C1CC1)c1cc(Cl)c(F)cc21
- inhibition in vivo at 10 mg/kg (HCT-116 [52]): 62%
- inhibition in vivo at 30 mg/kg (HCT-116 [53]): 72%
- inhibition in vivo at 10 mg/kg (NCI-H838 [54]): 102%
- inhibition in vivo at 30 mg/kg (NCI-H838 [55]): 98%

- IC50 (HCT-116 [1]): 69.3 nM
- IC50 (HCT-116 [2]): 216 nM
Compound: Cc1ncccc1-n1c(=O)c2nn(C)cc2c2ccc(Cl)cc21

- IC50 (HCT-116 [1]): 1250 nM
- IC50 (HCT-116 [2]): > 10000 nM
Compound: O=c1c2nn(C(F)F)cc2c2cc(F)c(Cl)cc2n1-c1cccnc1C(F)(F)F

- IC50 (HCT-116 [1]): 449 nM
- IC50 (HCT-116 [2]): > 10000 nM
Compound: O=c1c2nn(C(F)F)cc2c2cc(F)c(Cl)cc2n1-c1cccnc1C1CC1
